Data taken from publication PMC7732531 (Frontiers in Pharmacology, 2020).

Tests used:
[1] = Stability of YL-IPA08 in rat plasma (LC-MS/MS validation); assay type: in vitro ADME
Method: The quantification of YL-IPA08 in rat plasma was fully validated, and in vitro samples were particularly validated by selectivity, precision, and stability. The calibration curves of YL-IPA08 in rat plasma and in vitro incubates ranged in the concentrations of 0.5–500 ng/ml and 1–1,000 nM, respectively. The intra-day precision and inter-day precision […] were less than 15% at QC concentrations (full methodology validation results were presented in Supplementary Tables S1–S3).

in vivo = details: male, rat, po, 1 mg/kg
Method: The surgical procedure for portal vein catheter insertion was performed according to reference ([Matsuda et al., 2012]). Male SD rats (250–280 g) were purchased from Beijing Vital River Laboratory Animal Technology Co., Ltd. (Beijing, China). Rats were anesthetized with 2% pentobarbital sodium (0.2–0.3 mg/100 g) intraperitoneally dosed. Cannulation into the jugular vein was performed by the method of Murakami reported ([Murakami et al., 2003]) with minor modification. Briefly, an incision of ∼0.5 cm near right clavicle was made and the jugular vein was exposed. Next, this vein was cannulated with ∼12.5 cm of silicone gel tubing (0.6 mm I.D. × 0.9 mm O.D., Skillsmodel Inc., Beijing, China). The other side of the tubing was passed through the back skin. 2.5 cm midline incision was made in the abdominal cavity close to ensiform process and the portal vein was detached. To prevent bleeding, the portal vein was ligated temporarily as the catheter was inserted. The silicone tubing (22 cm, 0.6 mm I.D. × 0.9 mm O.D., Skillsmodel Inc., Beijing, China) was inserted immediately and fixed by a purse-string suture on the portal vein. The time to reperfusion was about 1 min after intercepted blood flow. In addition, a catheter with trumpet-shaped opening was used to prevent the catheter from slipping out of the vessel and minimize the effect on blood flow. Another end of the catheter was passed subcutaneously to the skin close to the scapula.
Blood samples were collected at 0, 0.083, 0.25, 0.5, 1, 2, 4, 6, 8 and 12 h. Blood (approximately 100 µl) was collected from the jugular and portal veins into tubes containing heparin on ice and centrifuged within 1 h of collection. Plasma was harvested and stored at −20°C for bioanalysis.
FaFg was calculated using mass balance method and rat portal blood flow (Qpv) of 32 ml/min/kg, where Rb/p is used to convert plasma concentrations to blood concentrations.

[2] = Mass balance study in rats via oral administration; details: rat, feces
Caco-2 cells = test: in vitro
Method: (§1) Caco-2 cell lines were cultured (ATCC, Manassas, VA, United States) as described previously ([Liu et al., 2014]). Briefly, the cells were cultured at 37°C in 5% CO2 at 90% humidity in DMEM high glucose medium containing 20% fetal bovine serum, 1% nonessential amino acids, 100 U/ml penicillin and 1% streptomycin. For the efflux studies, the cells were seeded onto polyethylene terephthalate Millicell® cell culture inserts (0.4 μm pore size, 6.5 mm diameter, Millipore Corporation, Billerica, MA, United States) at a density of 1.7 × 10^5 cells/ml. The culture medium was refreshed on the day after seeding, after which it was refreshed every other day and on the day before the transport experiment. The cells were cultured for 20–22 days after seeding and then evaluated by measuring the transepithelial electrical resistance (TEER) (Millicell ERS®, Millipore Corporation) before experiments. […] Transepithelial permeability studies for YL-IPA08 (10 μM) were conducted from apical to basolateral side (A-B) and basolateral to apical side (B-A) for 120 min 0.2% BSA was included in the receiver solution to avoid nonspecific binding. At 60, 90, and 120 min, half volume of solution from receiver side was withdrawn, and same volume of HBSS was immediately added. Obtained samples were precipitated by adding 4× volumes of acetonitrile containing IS and centrifuged. The supernatants were stored in −20°C until further analysis by LC-MS/MS.
(§2) The in vitro t1/2 in liver microsomal incubation was calculated from the semi-log plot of percentage remaining vs. incubation time and intrinsic clearance (Clint, ml/min/mg protein) was calculated as Eq. 1: CLint=0.693/in vitro t1/2×volume of incubation (μl)/amount of microsomal protein in incubation (mg) (1) ([Suzuki et al., 2003]).Apparent permeability was obtained according to the equation Papp = (dQ/dt)/(A × C0), where dQ/dt is the mass transport rate (determined from the slope of the amount transported vs. time plot), A is the surface area of the monolayer, and C0 is the initial concentration of YL-IPA08 in the donor chamber ([Suzuki et al., 2003]). The efflux ratio was calculated for each study using the following equation: […] = Papp(B–A)/Papp(A–B), where Papp(B–A) and Papp(A–B) represent apparent drug permeability in the B to A and A to B direction, respectively. An efflux ratio greater than 2 indicates net efflux.

in vitro = details: human, Caco-2
Method: as §1, §2

[3] = Freeze-thaw three cycles, HQC (400ng/ml)
[4] = Freeze-thaw three cycles, LQC (1ng/ml)
[5] = Freeze-thaw three cycles, MQC (20ng/ml)
[6] = In auto-sample for 24 h, HQC (400ng/ml)
[7] = In auto-sample for 24 h, LQC (1ng/ml)
[8] = In auto-sample for 24 h, MQC (20ng/ml)
[9] = Room temperature for 24 h, HQC (400ng/ml)
[10] = Room temperature for 24 h, LQC (1ng/ml)
[11] = Room temperature for 24 h, MQC (20ng/ml)

## CCN(Cc1ccccn1)C(=O)Cc1c(-c2ccc(Cl)c(Cl)c2)nc2cc(C)ccn12 [YL-IPA08]
[1]; 4℃ for 24 h, HQC (400ng/ml)
  Accuracy: 99.8±8.0%
  Measured value: 399.00 ± 31.76 ng/mL
[1]; 4℃ for 24 h, LQC (1ng/ml)
  Accuracy: 113.0±9.0%
  Measured value: 1.13 ± 0.09 ng/mL
[1]; 4℃ for 24 h, MQC (20ng/ml)
  Accuracy: 108.7±5.3%
  Measured value: 21.73 ± 1.07 ng/mL
[1]; -40℃ for 7 d, HQC (400ng/ml)
  Accuracy: 105.1±8.5%
  Measured value: 420.33 ± 33.84 ng/mL
[1]; -40℃ for 7 d, LQC (1ng/ml)
  Accuracy: 105.0±6.0%
  Measured value: 1.05 ± 0.06 ng/mL
[1]; -40℃ for 7 d, MQC (20ng/ml)
  Accuracy: 105.0±4.1%
  Measured value: 21.00 ± 0.82 ng/mL
[1]; [3]
  Accuracy: 96.8±2.6%
  Measured value: 387.33 ± 10.21 ng/mL
[1]; [4]
  Accuracy: 114.0±5.0%
  Measured value: 1.14 ± 0.05 ng/mL
[1]; [5]
  Accuracy: 103.0±1.8%
  Measured value: 20.60 ± 0.36 ng/mL
[1]; [6]
  Accuracy: 98.6±3.0%
  Measured value: 394.33 ± 12.06 ng/mL
[1]; [7]
  Accuracy: 95.0±2.0%
  Measured value: 0.95 ± 0.02 ng/mL
[1]; [8]
  Accuracy: 100.4±1.2%
  Measured value: 20.07 ± 0.25 ng/mL
[1]; [9]
  Accuracy: 102.5±1.4%
  Measured value: 410.00 ± 5.57 ng/mL
[1]; [10]
  Accuracy: 110.0±8.0%
  Measured value: 1.10 ± 0.08 ng/mL
[1]; [11]
  Accuracy: 112.5±4.1%
  Measured value: 22.50 ± 0.82 ng/mL
In vivo; SD, Plasma concentration
  concentration at 0.5 h: 77 ± 22.7 ng/mL
  concentration at 1 h: 75.5 ± 26.7 ng/mL
  concentration at 2 h: 78.3 ± 38.3 ng/mL
  concentration at 4 h: 34.1 ± 13.6 ng/mL
  concentration at 6 h: 11.7 ± 3.9 ng/mL
  concentration at 8 h: 5.23 ± 1.47 ng/mL
  concentration at 12 h: 1.96 ± 0.66 ng/mL
In vivo; Sprague-Dawley (SD), AUC
  AUC: 441 ± 93 ng·h/mL
[2]
  dose excreted: 0.004%
Caco-2 cells; Caco-2
  permeability across Caco-2 cells (in words): high permeability
Caco-2 cells; Caco-2, basolateral donor at time 0
  Concentration, DOB: 8.883 ± 0.436 µM
Caco-2 cells; human, Caco-2, 0 min, 10 µM
  Concentration, DOA: 8.35 ± 0.173 µM
Caco-2 cells; human, Caco-2, 60 min, 10 µM
  Concentration, A-B-B-60 min: 13 ± 4 nM
  Concentration, B-A-A-60 min: 28 ± 8 nM
Caco-2 cells; human, Caco-2, 90 min, 10 µM
  Concentration, A-B-B-90min: 36 ± 25 nM
  Concentration, B-A-A-90min: 68 ± 27 nM
Caco-2 cells; human, Caco-2, 120 min, 10 µM
  Concentration, A-B-A-120 min: 1755 ± 135 nM
  Concentration, A-B-B-120 min: 50 ± 17 nM
  Concentration, B-A-A-120 min: 105 ± 14 nM
  Concentration, B-A-B-120 min: 2598 ± 360 nM
  P appA-B: 3.99 × 10^–6 cm/s
  P appB-A: 2.63 × 10^–6 cm/s
In vitro
  Papp A→B at 120 min, 10 μM: 3.99 ± 1.46 ×10⁻⁶ cm/s
  Papp B→A at 120 min, 10 μM: 2.63 ± 0.43 ×10⁻⁶ cm/s
  efflux ratio at 120 min, 10 μM: 0.66
